Results taken from patent US10174016B2 (BAYER AKTIENGESELLSCHAFT, priority 2014, dated 2019).
Where two headings read alike, the source gives them in different places.

How the values were obtained:
rat hepatocytes = assay: In vitro metabolic stability in rat hepatocytes; assay type: in vitro ADME, Han Wistar rats; conditions: 1 μM, 1.0×10^6 cells/mL, maximal oral bioavailability calculated from half-life
Procedure: Determination of in vitro metabolic stability in rat hepatocytes (including calculation of hepatic in vivo blood clearance (CL))
Hepatocytes from Han Wistar rats were isolated via a 2-step perfusion method. After perfusion, the liver was carefully removed from the rat: the liver capsule was opened and the hepatocytes were gently shaken out into a Petri dish with ice-cold Williams' medium E (WME). The resulting cell suspension was filtered through sterile gaze in 50 mL falcon tubes and centrifuged at 50×g for 3 min at room temperature. The cell pellet was resuspended in 30 mL WME and centrifuged through a Percoll® gradient for 2 times at 100×g. The hepatocytes were washed again with WME and resuspended in medium containing 5% FCS. Cell viability was determined by trypan blue exclusion.
The test compound was added to a final concentration of 1 μM. […] Samples were frozen at −20° C. overnight, subsequently centrifuged for 15 minutes at 3000 rpm and the supernatant was analyzed with an Agilent 1200 HPLC-system with LCMS/MS detection.
(§1) The half-life of a test compound was determined from the concentration-time plot. From the half-life (kel: slope of concentration-time plot; half-life=ln 2/kel) the intrinsic clearances were calculated. Together with the additional parameters liver blood flow, amount of liver cells in vivo and in vitro.
(§2) Metabolic instability is often the main clearance mechanism of xenobiotica leading to a high CL and low bioavailability which may eventually result in a short half-life and a low exposure after oral administration. Thus, reducing the susceptibility of metabolic degradation usually leads to a more favourable pharmacokinetic profile. When using liver microsomes as incubation matrix main phase I metabolic reactions, typically oxidoreductive reactions by cytochrome P450 enzymes and flavin mono-oxygenases (FMO) and hydrolytic reactions by esterases/amidases/epoxidhydrolases, are described. When the incubation of the test compound is performed in a hepatocyte matrix all potential hepatic metabolic processes (phase I and phase II) are covered.

[1] = In vitro metabolic stability in liver microsomes (calculation of CL and Fmax); assay type: in vitro ADME, human; conditions: 1 μM, 0.5 mg/mL protein, maximal oral bioavailability calculated from half-life
Procedure: In Vitro Metabolic Stability Assays Determination of in vitro metabolic stability in microsomes (including calculation of hepatic in vivo blood clearance (CL) and of maximal oral bioavailability (Fmax))
The metabolic assay was started shortly afterwards by adding the test compound to the incubation at a final volume of 1 mL. Organic solvent in the incubations was limited to […] dimethylsulfoxide (DMSO) and ≤1% acetonitrile. […] Samples were frozen at −20° C. overnight, subsequently centrifuged for 15 minutes at 3000 rpm and the supernatant was analyzed with an Agilent 1200 HPLC-system with LCMS/MS detection.
as §1, with “specific” for “amount of”, “weight and microsomal protein content the hepatic” for “cells”, “vivo blood clearance (CL)” for “vivo”, “the maximal oral bioavailability (Fmax) were calculated for the different species.” for “in vitro.”
as §2

[2] = test system: CFA-induced mechanical hyperalgesia; assay: Rat CFA in vivo model (mechanical hyperalgesia, paw withdrawal threshold); set-up: species or system Male Sprague Dawley rats; conditions: dosed 24 hours after CFA injection
Procedure: Rat CFA In Vivo Model Male Sprague Dawley rats were used. Mechanical hyperalgesia was induced by injecting 25 μl of Complete Freund's Adjuvant (CFA) into the plantar surface of one hind paw. Mechanical hyperalgesia was measured using the Pressure Application Measurement apparatus (Ugo Basile, Gemonio, Italy). Briefly, a linearly increasing pressure was applied to an area of ˜50 mm2 of the plantar side of the hind paw until a behavioural response (paw withdrawal) was observed or until the pressure reached 1000 gf. The pressure at which the behavioural response occurred was recorded as the “Paw Withdrawal Threshold” (PWT). Both CFA-injected and contralateral PWTs were determined for each rat, in each treatment group and at each time point of the studies. […] Compounds were dosed 24 hours after CFA injection. Data were expressed as the mean PWT for each treatment group and at each time point. Data were analysed by performing a repeated measures two way ANOVA (time×treatment). Planned comparison of means (each versus vehicle) was performed by using a Dunnett's post hoc test, provided that a main effect was detected. […] More preferred examples of the present invention show rat CFA in vivo efficacy in the ‘Paw withdrawal threshold 6 hours post drug’ measure when dosed at 3 mg/kg p.o.

[3] = Human liver cytosol stability assay; assay type: in vitro ADME; conditions: human liver cytosol 1 mg/mL, 1 or 10 μM, 37° C.
Procedure: Human Liver Cytosol Stability Assay
Method description: Human liver cytosol (pooled, >30 male and female donors) was incubated with individual test compounds in order to compare the extent of depletion of test compound and formation of the respective oxidised metabolite. […] An incubation volume of 1000 μL was used. The test compound was added from a stock solution in acetonitrile at 1 or 10 μM concentration in the incubation. Incubations were performed at 37° C. Reactions were stopped at 0 h and 4 h after incubation by addition of 100 μL acetonitrile to 250 μL of incubation mixture. Precipitated proteins were removed by centrifugation at approximately 3000 rpm. The supernatants were stored at approximately −20° C. until they were analysed. […]
Data analysis: The depletion of the test compound and formation of the corresponding metabolites were determined by decrease or increase of the corresponding peak area in the chromatogram after UV detection at approximately 300 nm 4 h after incubation compared to that at 0 h after incubation. […]

human P2X2/3 receptor = human P2X2/3 receptor (Homo sapiens (Human), UniProt P56373+Q9UBL9); assay: Intracellular calcium measurement (FLIPR, Fluo-4) of antagonist activity at human P2X2/3 receptors; assay type: cell-based; conditions: human P2X2/3, FLIPR calcium assay, agonist α,β-Me-ATP; read-out: hP2X2/3 IC50
Procedure, shortened: (§3)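 Cells expressing human P2X3 or P2X2/3, loaded with Fluo-4, preincubated 30 min at 37° C. with compound (1% DMSO final), then challenged with α,β-Me-ATP at its EC80. Peak FLIPR fluorescence over 90 sec gave % response; IC50, maximal inhibition and Hill slope from triplicates.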

human P2X3 receptor = human P2X3 receptor (Homo sapiens (Human), UniProt P56373); assay: Intracellular calcium measurement (FLIPR, Fluo-4) of antagonist activity at human P2X3 receptors; assay type: cell-based
Procedure, shortened: as §3

[4] = Bidirectional Caco-2 cell permeability assay; assay type: in vitro ADME; conditions: human
Procedure: Bidirectional Caco-2 Cell Permeability Assay
Caco-2 cells (purchased from DSMZ Braunschweig, Germany) were seeded at a density of 4.5×10^4 cell per well on 24 well insert plates, 0.4 μm pore size, and grown for 15 days in Dulbecco's modified Eagle medium supplemented with 10% fetal bovine serum, 1% GlutaMAX (100×, purchased from GIBCO), 100 U/ml penicillin, 100 μg/ml streptomycin (purchased from GIBCO) and 1% non-essential amino acids (100×). Cells were maintained at 37° C. in a humidified 5% CO2 atmosphere. Medium was changed every 2-3 days. […] Test compounds were dissolved in DMSO and added to the donor chamber representing either the apical or basolateral compartment in a final concentration of 2 μM. Before and after 2 h incubation at 37° C. samples were taken from both compartments (donor and receiver chamber). Analysis of compound concentrations was done after precipitation with methanol. Analysis was performed by high-pressure liquid chromatography and a tandem mass spectrometric detector using an Agilent 1200 liquid chromatography system and an AB Sciex API4000 triple-quadrupole mass spectrometer applying the parameters, which were optimized to achieve maximum signal intensity of the corresponding test compound. Permeability (Papp) was calculated in the apical to basolateral (A→B) and basolateral to apical (B→A) directions. […] The efflux ratio basolateral (B) to apical (A) was calculated by dividing the Papp B-A by the Papp A-B.
The bidirectional Caco-2 cell permeability assay is a well-established method for predicting the in vivo absorption of drugs across the gut wall by measuring the rate of transport of a compound across the Caco-2 monolayer. Since differentiated Caco-2 cells express functional efflux transport proteins like P-gp, they are also used for identification of compounds with efflux liabilities. Intestinal efflux can decrease systemic plasma concentrations of an orally dosed compound by affecting intestinal absorption of a compound.

[5] = human P2X3, FLIPR calcium assay, agonist α,β-Me-ATP, read-out: hP2X3 IC50
[6] = read-out: human P2X3 receptor IC50

Chain of human P2X2/3 receptor (P56373 whole entry): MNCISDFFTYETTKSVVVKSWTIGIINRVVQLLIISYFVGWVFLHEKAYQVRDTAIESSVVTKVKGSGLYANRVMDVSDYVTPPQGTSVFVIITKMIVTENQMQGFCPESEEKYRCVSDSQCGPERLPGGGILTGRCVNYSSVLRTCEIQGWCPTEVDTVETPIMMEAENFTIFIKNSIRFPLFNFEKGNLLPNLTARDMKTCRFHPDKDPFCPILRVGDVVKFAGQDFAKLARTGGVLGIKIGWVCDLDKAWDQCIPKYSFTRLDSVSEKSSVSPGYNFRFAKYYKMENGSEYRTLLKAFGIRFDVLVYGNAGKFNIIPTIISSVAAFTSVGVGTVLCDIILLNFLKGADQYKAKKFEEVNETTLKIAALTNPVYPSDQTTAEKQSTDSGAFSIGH
Chain of human P2X2/3 receptor (Q9UBL9 whole entry): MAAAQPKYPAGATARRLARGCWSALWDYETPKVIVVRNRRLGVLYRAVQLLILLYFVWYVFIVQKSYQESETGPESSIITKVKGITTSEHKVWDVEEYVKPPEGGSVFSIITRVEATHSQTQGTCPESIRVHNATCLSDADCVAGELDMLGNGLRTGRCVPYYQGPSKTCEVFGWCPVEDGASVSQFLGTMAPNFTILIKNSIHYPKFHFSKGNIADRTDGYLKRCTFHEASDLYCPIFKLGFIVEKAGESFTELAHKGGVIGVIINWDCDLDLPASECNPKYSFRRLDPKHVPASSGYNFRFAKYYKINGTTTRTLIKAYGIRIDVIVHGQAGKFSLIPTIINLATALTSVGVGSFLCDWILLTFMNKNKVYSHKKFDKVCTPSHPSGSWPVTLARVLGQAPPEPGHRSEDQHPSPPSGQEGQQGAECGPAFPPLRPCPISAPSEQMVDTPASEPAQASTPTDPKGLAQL
Chain of human P2X3 receptor (P56373 whole entry): as the sequence (P56373 whole entry) above

Rat hepatocyte Fmax (rat hepatocytes)	Human liver microsome Fmax [1]	IC50 (human P2X2/3 receptor)	IC50 (human P2X3 receptor; [5])	SMILES	other results
43%	74%	–	–	Cc1cnc(-c2cc(OC(C)C(C)O)cc(C(=O)N[C@H](C)c3ccc(C(F)(F)F)nn3)c2)s1 (single isomer, unassigned) [Example 183]	–
–	–	–	–	CC(O)C(C)Oc1cc(C(=O)N[C@H](C)c2cnc(C(F)(F)F)nc2)cc(-c2ncc(Cl)s2)c1 (single isomer, unassigned) [Example 185]	Paw withdrawal threshold 6 hour-post drug ([2]; 3 mg/kg p.o.): 630 ± 81 (*) gf
52%	94%	–	–	Cc1cnc(-c2cc(OC(C)C(C)O)cc(C(=O)N[C@H](C)c3cnc(C(F)(F)F)nc3)c2)s1 (single isomer, unassigned) [Example 339]	–
64%	90%	–	–	Cc1cnc(-c2cc(OC(C)C(C)O)cc(C(=O)N[C@H](C)c3cnc(C(F)(F)F)nc3)c2)s1 (single isomer, unassigned) [Example 340]	–
56%	67%	–	–	Cc1cnc(-c2cc(O[C@H]3CCOC3)cc(C(=O)N[C@H](C)c3cnc(C(F)(F)F)nc3)c2)s1 [Example 26, 3-(5-Methyl-1,3-thiazol-2-yl)-5-[(3S)-tetrahydrofuran-3-yloxy]-N-{(1R)-1-[2-(trifluoromethyl)pyrimidin-5-yl]ethyl}benzamide]	Test compound turnover after 4 h [3]: 12%
–	–	451 nM	14 nM	Cc1cnc(-c2cc(OC3COC3)cc(C(=O)N[C@H](C)c3cnc(C(F)(F)F)nc3)c2)s1 [Example 48, 3-(5-Methyl-1,3-thiazol-2-yl)-5-(oxetan-3-yloxy)-N-{(1R)-1-[2-(trifluoromethyl)pyrimidin-5-yl]ethyl}benzamide]	Paw withdrawal threshold 6 hour-post drug ([2]; 3 mg/kg p.o.): 817 ± 69 gf (****); IC50 (human P2X3 receptor; [6]): 14 nM
–	–	2180 nM	10 nM	CCc1cnc(-c2cc(OC[C@H]3CNCCO3)cc(C(=O)N[C@H](C)c3ccc(C(F)(F)F)nn3)c2)s1 [Example 415, 3-(5-ethyl-1,3-thiazol-2-yl)-5-[(2R)-morpholin-2-ylmethoxy]-N-{(1R)-1-[6-(trifluoromethyl)pyridazin-3-yl]ethyl}benzamide]	–
–	–	1560 nM	23 nM	CCc1cnc(-c2cc(OC[C@@H]3CN(C)CCO3)cc(C(=O)N[C@H](C)c3ccc(C(F)(F)F)nn3)c2)s1 [Example 418, 3-(5-Ethyl-1,3-thiazol-2-yl)-5-{[(2S)-4-methylmorpholin-2-yl]methoxy}-N-{(1R)-1-[6-(trifluoromethyl)pyridazin-3-yl]ethyl}benzamide]	–
51%	74%	1140 nM	9 nM	CCc1cnc(-c2cc(OC[C@H]3CN(C)CCO3)cc(C(=O)N[C@H](C)c3ccc(C(F)(F)F)nn3)c2)s1 [Example 419, 3-(5-ethyl-1,3-thiazol-2-yl)-5-{[(2R)-4-methylmorpholin-2-yl]methoxy}-N-{(1R)-1-[6-(trifluoromethyl)pyridazin-3-yl]ethyl}benzamide]	efflux ratio at 2 h, 2 μM ([4]; Caco-2, pH 7.2, Papp B-A divided by Papp A-B): 1.7; Papp A→B at 2 h, 2 μM ([4]; Caco-2, apical to basolateral, 2 μM, 2 h, 37° C., pH 7.2): 10.4 ×10⁻⁶ cm/s; Papp B→A at 2 h, 2 μM ([4]; Caco-2, basolateral to apical, 2 μM, 2 h, 37° C., pH 7.2): 17.5 ×10⁻⁶ cm/s

SMILES	Rat hepatocyte Fmax (rat hepatocytes)	Human liver microsome Fmax [1]	IC50 (human P2X2/3 receptor)	IC50 (human P2X3 receptor; [5])	other results
Cc1cnc(-c2cc(OC[C@H]3CN(C)CCO3)cc(C(=O)N[C@H](C)c3cnc(C(F)(F)F)nc3)c2)s1 [Example 348, 3-{[(2R)-4-methylmorpholin-2-yl]methoxy}-5-(5-methyl-1,3-thiazol-2-yl)-N-{(1R)-1-[2-(trifluoromethyl)pyrimidin-5-yl]ethyl}benzamide]	–	–	760 nM	7 nM	Paw withdrawal threshold 6 hour-post drug ([2]; 0.3 mg/kg p.o.): 599 ± 47 gf (*); Paw withdrawal threshold 6 hour-post drug ([2]; 1 mg/kg p.o.): 601 ± 28 gf (**); Paw withdrawal threshold 6 hour-post drug ([2]; 3 mg/kg p.o.): 633 ± 59 gf (*); IC50 (human P2X3 receptor; [6]): 7 nM
Cc1cnc(-c2cc(OC[C@H]3CN(C)CCO3)cc(C(=O)N[C@@H](C)c3cnc(C(F)(F)F)nc3)c2)s1 [Example 416, 3-{[(2R)-4-methylmorpholin-2-yl]methoxy}-5-(5-methyl-1,3-thiazol-2-yl)-N-{(1S)-1-[2-(trifluoromethyl)pyrimidin-5-yl]ethyl}benzamide]	–	–	≥ 10000 nM	–	IC50 (human P2X3 receptor; read-out: hP2X3 IC50): 227 nM
Cc1cnc(-c2cc(OC[C@@H]3CN(C)CCO3)cc(C(=O)N[C@@H](C)c3cnc(C(F)(F)F)nc3)c2)s1 [Example 417, 3-{[(2S)-4-methylmorpholin-2-yl]methoxy}-5-(5-methyl-1,3-thiazol-2-yl)-N-{(1S)-1-[2-(trifluoromethyl)pyrimidin-5-yl]ethyl}benzamide]	–	–	≥ 10000 nM	–	IC50 (human P2X3 receptor; read-out: hP2X3 IC50): 434 nM
